This note sets out measurements from ChEMBL document CHEMBL5113506, “Discovery of novel human lactate dehydrogenase inhibitors: Structure-based virtual screening studies and biological assessment” (Eur J Med Chem, 2022).

Each structure is given as a SMILES string. Calls of active or inactive are those of the source. No cut-off for these calls is given here.

In assay [1] the target is T1, L-lactate dehydrogenase A chain (Homo sapiens, UniProt P00338). The assay is described as follows: Inhibition of LDHA in human liver using pyruvate as substrate incubated for 3 mins by fluorescence assay. Type of assay: tissue-based.
Assay [2] concerns Medulloblastoma cell. Nature of the assay: Antiproliferation activity against human Med1 assessed as reduction in cell viability at […] after 24 hrs by Trypan blue exclusion assay. Type of assay: functional, cell-based.
Assay [3] has as its system Medulloblastoma cell. Nature of the assay: Antiproliferation activity against human Med1 assessed as reduction in cell viability at 1 mM after 24 hrs by Trypan blue exclusion assay. Type of assay: functional, cell-based.
A short description of assay [4]: Antiproliferation activity against human Med1 assessed as reduction in cell viability after 24 hrs by Trypan blue exclusion assay. Type of assay: functional, cell-based. Conditions: Medulloblastoma cell.
The subject of assay [5] is HCT-116. Nature of the assay: Induction of apoptosis in human HCT-116 cells assessed as increase in cleaved PARP protein expression level after 48 hrs in presence of rotenone by Western blot analysis. Type of assay: functional, cell-based. A general note: In western blotting, separated proteins are transferred to a membrane and probed.
In assay [6] the test system is A549. Nature of the assay: Antiproliferation activity against human A549 cells assessed as reduction in cell viability after 24 hrs by Trypan blue exclusion assay. Type of assay: functional, cell-based.
Assay [7] has as its system HCT-116. The assay is described as follows: Antiproliferation activity against human HCT-116 cells assessed as reduction in cell viability after 24 hrs by Trypan blue exclusion assay. Type of assay: functional, cell-based.
The test system of assay [8] is HCT-116. Nature of the assay: Antiproliferation activity against human HCT-116 cells assessed as reduction in cell viability after 24 hrs in presence of rotenone by Trypan blue exclusion assay. Type of assay: functional, cell-based.
The test system of assay [9] is HCT-116. Nature of the assay: Induction of […] in human HCT-116 cells assessed as increase in LC3B-I lipidation protein expression level after 48 hrs in presence of rotenone by Western blot analysis. Type of assay: functional, cell-based.
Assay [10] relates to HCT-116. The assay is described as follows: Induction of apoptosis in human HCT-116 cells assessed as increase in cleaved PARP protein expression level at 80 to 320 uM after 48 hrs by Western blot analysis. Type of assay: functional, cell-based. To be noted: dose 80-320 µM.
For assay [11], the target named is T1, L-lactate dehydrogenase A chain. The assay is described as follows: Inhibition of LDHA in human Med1 cells using pyruvate as substrate incubated 10 mins by spectrophotometric analysis. Type of assay: cell-based, Medulloblastoma cell.
The target is the same in assay [12]. Nature of the assay: Inhibition of LDHA in human Med1 cells assessed as reduction in lactate production by measuring ECAR using pyruvate as substrate incubated 6 hrs by seahorse extracellular flux analysis. Type of assay: cell-based. Conditions: Medulloblastoma cell.
The subject of assay [13] is Medulloblastoma cell. Nature of the assay: Antiproliferation activity against human Med1 assessed as reduction in cell viability at 100 uM after 24 hrs by Trypan blue exclusion assay. Type of assay: functional, cell-based.
In assay [14] the test system is HCT-116. Nature of the assay: Induction of autophagy in human HCT-116 cells assessed as increase in LC3B-I lipidation protein expression level at 80 to 320 uM after 48 hrs by Western blot analysis. Type of assay: functional, cell-based. To be noted: dose 80-320 µM.
Assay [15] deals with PANC-1. The assay is described as follows: Antiproliferation activity against human PANC-1 cells assessed as reduction in cell viability after 24 hrs by Trypan blue exclusion assay. Type of assay: functional, cell-based.
For assay [16], the system named is SW-620. Nature of the assay: Antiproliferation activity against human SW-620 cells assessed as reduction in cell viability after 24 hrs by Trypan blue exclusion assay. Type of assay: functional, cell-based.
Assay [17] has as its target L-lactate dehydrogenase B chain (Mus musculus, UniProt P16125). Nature of the assay: Inhibition of mouse LDHB using sodium pyruvate as substrate.

L-lactate dehydrogenase B chain, sequence (P16125 whole entry): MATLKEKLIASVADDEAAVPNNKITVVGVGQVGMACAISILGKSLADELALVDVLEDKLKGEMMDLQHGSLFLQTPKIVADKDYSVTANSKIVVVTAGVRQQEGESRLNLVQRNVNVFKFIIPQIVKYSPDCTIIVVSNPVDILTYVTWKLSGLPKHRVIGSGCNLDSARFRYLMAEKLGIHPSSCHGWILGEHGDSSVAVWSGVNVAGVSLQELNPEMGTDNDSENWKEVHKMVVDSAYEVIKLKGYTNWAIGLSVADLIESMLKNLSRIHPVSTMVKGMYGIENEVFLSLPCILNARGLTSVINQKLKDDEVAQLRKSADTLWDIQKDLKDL

By Ki is commonly meant the equilibrium dissociation constant of an inhibitor or competing ligand from its target. Read a high Ki as weaker binding. In assay [1], `O=c1cc2c(=O)oc3cc(O)c(O)oc3c2c(O)c1O` came in with a Ki of 5460 nM.

The IC50 is the concentration at which inhibition is half-maximal. As for `Cn1nc(C2CCN(C(=O)NCc3ccccc3)CC2)n(-c2ccccc2)c1=O`, the outcome in assay [2] and in assay [3] was Active. The IC50 in assay [4] worked out at 1510 nM.

With `NC(=O)C(=O)O` [SODIUM OXAMATE], the IC50 in assay [4] came to 15900 nM.

`Cc1cc(C(=O)N(CCc2cccs2)C2CCOCC2)no1`: the outcome in assay [2] and in assay [3] was Active. Also, in [4], the IC50 amounted to 1160 nM.

Regarding `O=C(O)c1nnn(-c2ccc(F)cc2F)c1-c1ccccc1`, the result in assay [2] and in assay [3] was Active. Also, the IC50 in assay [4] worked out at 1300 nM.

On to `O=c1cc2c(nn1CC1CCN(C3=NS(=O)(=O)c4ccccc43)CC1)CCC2`, for which the result in [5], in [6], in [7], in [8], in assay [9] and in [10] was Active. The result in assay [2], in assay [13], in assay [14], in assay [15], in [3] and in [16] was Active. For the same molecule, the IC50 came to 12 nM in assay [11] and 81.8 nM in [4]. In addition, the inhibition result in assay [12] is “Active”.

With `Cc1nn(-c2ncc(NC(=O)C3(c4ccccc4)CCOCC3)cn2)c(C)c1C`, the outcome in assay [2], in assay [13] and in assay [3] was Active. For the same molecule, the IC50 in [4] is 29.8 nM.

On to `O=C(NCc1nn(C2CCCC2)c(=O)c2ccccc12)Nc1ccccc1F`, for which the outcome in [2] and in assay [3] was Active. Further, in [4], the IC50 turned out to be 8460 nM.

`Cc1cc2c(C(C)C)c(O)c(O)c(C=O)c2c(O)c1-c1c(C)cc2c(C(C)C)c(O)c(O)c(C=O)c2c1O` [GOSSYPOL] registered a Ki in assay [17] of 1400 nM.

Consider `CSc1cccc(-n2c(=O)n(Cc3ccc(C(=O)O)cc3)c(=O)c3[nH]cnc32)c1`, for which the outcome in [2] was Active. Moreover, the IC50 in [4] stood at 8310 nM.

For the molecule `Cc1ccc(-c2c(C)c(C(=O)O)nn2-c2ccc(Cl)c(Cl)c2)cc1C`, the outcome in [2] and in assay [3] was Active. In [4], the IC50 worked out at 1140 nM.

In the case of `CSc1sc(C(=O)O)cc1-c1nc(-c2ccc(C)cc2)cs1`, the result in assay [2] and in assay [3] was Active. Also, the IC50 in assay [4] came out at 964 nM.
